Literature values, collected in patent US20120165520A1, “PROCESS FOR THE SYNTHESIS OF PRODRUGS OF OPIOIDS” (priority 2010, published 2012).

How the values were obtained:
[1] = not given; remark: listed apart in the source

Structure (SMILES)	oral bioavailability [%]	fraction of an oral dose converted to dihydromorphine [1]
CCC1(c2cccc(O)c2)CCCCN(C)C1 (centres unmarked) [Meptazinol, meptazinol]	< 10	
COc1ccc2c3c1O[C@H]1[C@@H](O)CC[C@H]4[C@@H](C2)N(C)CC[C@@]341 [dihydrocodeine]		less than 2%
